How the values were obtained:
myeloma cell line JJN3 = experiment: Cell growth inhibition (PrestoBlue) in myeloma cell line JJN3; assay type: cell-based, Human; conditions: FIG. 3a
Description: Cell Culture. Human myeloma cell lines JJN3 were purchased from ATCC, KMM-1 was procured from the Japanese Collection of Research Bioresources Cell Bank (JCBR, Japan). The MM1.R cell line was a kind gift from Dr. Jonathan Keats, Translational Genomics Research Institute (TGen, USA). JJN3 cells were grown in RPMI-1640 medium (Sigma Aldrich, USA) supplemented with 5% heat inactivated FBS (Gibco), 1% I-glutamine (Gibco), 5 mM HEPES, and 1% Penstrep (Sigma Aldrich, USA); KMM-1 cells in RPMI-1640 media supplemented with 10% FBS, 1% L-glutamine (Gibco) and 1% Penstrep; MM1.R cells in advanced RPMI-1640 medium with 4% FBS and 1% Glutamax, in a humidified 5% CO2 incubator at 37° C. Cell lines were tested regularly for mycoplasma and kept free of contamination. Lenalidomide, terameprocol (Sigma Aldrich, USA) and pomalidomide from Selleck chemicals were used.
Cell Growth Inhibition Studies. A 48-h cell growth inhibition assay was conducted using the PrestoBlue cell viability kit (Invitrogen, ON, Canada). Cells were plated at 10,000 cells/well in 96-well tissue culture plates. The effect of single inhibitor and inhibitor combination treatments were done using appropriate vehicle and medium (blank) controls. Cells were incubated at 37° C. in a 5% CO2 incubator for 48 h or 72 h depending on the chosen duration of the study. At the end of the treatment, cell growth inhibition was determined by the PrestoBlue assay. […] Cell growth was assessed fluorometrically at 37° C. using the BioTek Synergy H4 Hybrid Multi-Mode microplate reader (535 nm excitation; 615 nm emission) with Gen 2.06 analyses software. Fluorescence values were corrected for any background fluorescence of the medium and test fractions by subtracting fluorescence readings of the appropriate blanks from the mean fluorescence readings of the untreated control and test wells. The percentage inhibition of cell growth was then defined as 1−(mean test well fluorescence/mean control well fluorescence)×100.

myeloma cell = experiment: Myeloma cell growth inhibition, combination treatments (FIG. 4, FIG. 5); assay type: cell-based, Human
Description: Cell Growth Inhibition Studies. A 48-h cell growth inhibition assay was conducted using the PrestoBlue cell viability kit (Invitrogen, ON, Canada). Cells were plated at 10,000 cells/well in 96-well tissue culture plates. The effect of single inhibitor and inhibitor combination treatments were done using appropriate vehicle and medium (blank) controls. Cells were incubated at 37° C. in a 5% CO2 incubator for 48 h or 72 h depending on the chosen duration of the study. At the end of the treatment, cell growth inhibition was determined by the PrestoBlue assay. In brief, 10% PrestoBlue reagent was added to untreated and treated cells in […] in each well and incubated at 37° C. for one and a half hours. Cell growth was assessed fluorometrically at 37° C. using the BioTek Synergy H4 Hybrid Multi-Mode microplate reader (535 nm excitation; 615 nm emission) with Gen 2.06 analyses software. Fluorescence values were corrected for any background fluorescence of the medium and test fractions by subtracting fluorescence readings of the appropriate blanks from the mean fluorescence readings of the untreated control and test wells. The percentage inhibition of cell growth was then defined as 1−(mean test well fluorescence/mean control well fluorescence)×100.

[1] = system: IKZF1, IKZF3, IRF4, MYC and HDAC1 gene expression in human myeloma cells (KMM-1); experiment: RNA Seq gene expression profiling in KMM-1 myeloma cells; assay type: cell-based; conditions: in comparison with untreated and lenalidomide (10 uM) treated conditions, FIG. 1
Description: RNA from myeloma cells (treated and untreated) was isolated and checked for integrity using the Agilent Bioanalyzer 2100 system (Agilent Technologies, Santa Clara, Calif., USA) and quantified using a Qubit fluorometric assay (Thermo Fisher Scientific, USA). RNA Seq was carried out at the Genome Quebec, Montreal, Canada. […] The remaining steps of library preparation were done using the NEBNext Ultra II DNA Library Prep Kit for Illumina (New England BioLabs). Adapters and PCR primers were purchased from New England BioLabs. Libraries were quantified using the Quant-iT™ PicoGreen® dsDNA Assay Kit (Life Technologies) and the Kapa Illumina GA with Revised Primers-SYBR Fast Universal kit (Kapa Biosystems). Average size fragment was determined using a LabChip GX (PerkinElmer) instrument. All bioinformatics analyses were done by the Canadian Centre for Computational Genomics (C3G)-Montréal Node, Canada.

[2] = system: HDAC1, Sp1, IRF4, IKZF1 and c-MYC protein in human myeloma cell lines JJN3 and MMIR; experiment: Western blots of key protein targets in myeloma cell lines; assay type: cell-based; conditions: 1, 5, 10 and 25 uM, in comparison with panobinostat, FIG. 2a, 2b
Description: Western/Immunoblotting Methods. Protein lysates were obtained from untreated and CAPE (2) analog-treated myeloma cells and the concentration of proteins was determined by the BCA method. Proteins were resolved in a 4-20% criterion gel followed by electrophoretic transfer to nitrocellulose membrane (Bio-Rad Laboratories Inc., Germany). Membranes were then blocked with 5% skimmed milk in tris-buffered saline-tween (TBS-T) for 1 h and then, after rapid TBS-T washes, incubated overnight at 4° C. with a primary antibody of interest. Goat polyclonal anti-IRF4, rabbit polyclonal anti-Ikaros (Santa Cruz Biotechnology, Santa Cruz, Calif.); mouse monoclonal anti-Caspase-8, rabbit anti-Caspase-3, cleaved Caspase-3, anti-Sp1 (Cell Signaling Technology, Whitby, ON), rabbit monoclonal anti-MYC and mouse monoclonal β-actin antibody (Abcam, Cambridge, Mass.) were the primary antibodies used for this study. Following this, the membrane was incubated with HRP conjugated secondary antibodies. Protein levels in immunoblots were detected with an Amersham™ ECL™ Prime western blotting detection kit (GE Healthcare, ON, Canada), the imaging was performed using the ChemiDoc™ MP imaging system (Bio-Rad Laboratories, USA) and densitometry analyses were done using the Image Lab 5.0 software.

In the case of `O=C(/C=C/c1cc(O)ccc1O)OCCCc1ccccc1` [As26], the “myeloma cell growth inhibition” value (myeloma cell line JJN3; combination 2.5 μM As26 with 0.001 nM panobinostat) is reported as 54.4%, the “myeloma cell growth inhibition” value (myeloma cell line JJN3; combination 5 μM As26 with 0.001 nM panobinostat) is reported as 69.8% and the “myeloma cell growth inhibition, combination versus single agents” value (myeloma cell; Sp1 inhibitor Terameprocol (TMP) and As26 combination, FIG. 5) is reported as “augmented myeloma cell growth inhibition”. The “myeloma cell growth inhibition, combination versus single agents” value (myeloma cell; Trichostatin A and IC 50 As26 combination treatment, FIG. 4) was “augmented myeloma cell growth inhibition”.

In the case of `O=C(/C=C/c1ccc(O)c(O)c1)OCCc1ccccc1` [CAPE, caffeic acid phenethyl ester], the “gene expression of IKZF1, IKZF3, IRF4, MYC and HDAC1” value (“gene expression of IKZF1, IKZF3” below) ([1]; 50 uM) is reported as “downregulated” and the “protein levels of HDAC1, Sp1, IRF4, IKZF1 and c-MYC” value [2] is reported as “lowered”.

`O=C(/C=C/c1ccc(O)c(O)c1)OCCCc1ccccc1` [GL8] was tested, and the “gene expression of IKZF1, IKZF3” value ([1]; 25 uM) was “downregulated” and the “gene expression of IKZF1, IKZF3” value ([1]; 50 uM) was “downregulated”.

Work on `Cc1[nH]c2ccccc2c1CCNCc1ccc(/C=C/C(=O)NO)cc1` [panobinostat, reference compound] yielded an inhibition at 1 pM (myeloma cell line JJN3; Homo sapiens, JJN-3, panobinostat alone, 0.001 nM) of 17 ± 3%.

Source: patent US20230115120A1, “COMPOSITIONS, METHODS AND USES OF COMBINATION TREATMENTS FOR BLOOD CANCERS” (University of New Brunswick, priority 2020, published 2023)
